According to PubChem BioAssay (NCI):
Where “and” joins values, the source holds several entries; their conditions need not be identical. Equal entries are not always repeated.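 Results reflect a 48-hour exposure of cells in 96-well plates to compound at five concentrations. Here, GI50 denotes the concentration required for 50% inhibition of growth. TGI marks complete inhibition of growth.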

Experiments:
Assay in all cases: NCI-60 cell line screen, 48 h; in the data active = GI50 below about 0.43 µM; inactive = the rest
[1] = system: OVCAR-8 ovarian
[2] = system: XF 498 CNS
[3] = system: SF-539 CNS
[4] = system: NCI-H460 lung
[5] = system: UO-31 renal
[6] = system: OVCAR-3 ovarian
[7] = system: MOLT-4 leukemia
[8] = system: HOP-92 NSCLC
[9] = system: SK-MEL-2 melanoma
[10] = system: RPMI-8226 leukemia
[11] = system: UACC-257 melanoma
[12] = system: OVCAR-5 ovarian
[13] = system: HCC-2998 colon
[14] = system: HOP-62 NSCLC
[15] = system: NCI-H522 lung
[16] = system: K-562 leukemia
[17] = system: M14 melanoma
[18] = system: KM20L2 colon
[19] = system: IGROV1 ovarian
[20] = system: NCI-H226 lung
[21] = system: SW-620 colon
[22] = system: DLD-1 colon
[23] = system: OVCAR-4 ovarian
[24] = system: SF-295 CNS
[25] = system: U251 CNS
[26] = system: MALME-3M melanoma
[27] = system: HCT-15 colon
[28] = system: SF-268 CNS
[29] = system: HL-60(TB) leukemia
[30] = system: SK-MEL-5 melanoma
[31] = system: LXFL 529 NSCLC
[32] = system: COLO 205 colon
[33] = system: M19-MEL melanoma
[34] = system: KM12 colon
[35] = system: SNB-19 CNS
[36] = system: SK-MEL-28 melanoma
[37] = system: HT29 colon
[38] = system: DMS 273 small cell lung
[39] = system: SR leukemia
[40] = system: TK-10 renal
[41] = system: DMS 114 small cell lung
[42] = system: SNB-75 CNS
[43] = system: CCRF-CEM leukemia
[44] = system: HCT-116 colon
[45] = system: A549 NSCLC
[46] = system: 786-0 renal
[47] = system: UACC-62 melanoma
[48] = system: ACHN renal
[49] = system: CAKI-1 renal
[50] = system: NCI-H23 lung
[51] = system: EKVX NSCLC
[52] = system: SN12C renal
[53] = system: SK-OV-3 ovarian
[54] = system: A498 renal
[55] = system: SNB-78 CNS

CC[N+](CC)(CC)Cc1cc2ccccc2n1C(=O)OC
> 100 µM: TGI [1] | TGI [2] | TGI [3] | TGI [4] | TGI [5] | TGI [6] | TGI [7] | TGI [8] | TGI [9] | TGI [10] | TGI [11] | TGI [12] | TGI [13] | TGI [14] | TGI [15] | TGI [16] | TGI [17] | TGI [18] | TGI [19] | TGI [20] | TGI [21] | TGI [22] | TGI [23] | TGI [24] | TGI [25] | TGI [26] | TGI [27] | TGI [28] | TGI [29] | TGI [30] | TGI [31] | TGI [32] | TGI [33] | TGI [34] | TGI [35] | TGI [36] | TGI [37] | TGI [38] | TGI [39] | TGI [40] | TGI [41] | TGI [42] | TGI [43] | TGI [44] | TGI [45] | TGI [46] | TGI [47] | TGI [48] | TGI [49] | TGI [50]

CCCCCC(=O)N[C@H]1CCc2cc(OC)c(OC)c(OC)c2-c2ccc(SC)c(=O)cc21
11.2 µM: TGI [16]
19 µM: TGI [52]
1.17 µM: TGI [8]
0.0755 µM and 0.131 µM: TGI [37]
0.0811 µM: TGI [53]
50.7 µM: TGI [33]
> 100 µM: TGI [7] | TGI [51] | TGI [12] | TGI [21] | TGI [22] | TGI [23] | TGI [55] | TGI [36] | TGI [45] | TGI [49]
inactive: GI50 [36] 25.1 µM
0.0449 µM: TGI [54]
0.0484 µM: TGI [30]
0.0374 µM: TGI [3]
11.6 µM: TGI [46]
36 µM: TGI [48]
0.0549 µM: TGI [13]
17.3 µM: TGI [31]
0.0354 µM: TGI [6] | TGI [18]
33.4 µM: TGI [11]
6.04 µM: TGI [2]
0.0285 µM: TGI [32]
29.3 µM: TGI [47]
0.0646 µM: TGI [27]
49.7 µM: TGI [14]
0.0913 µM and 0.0136 µM: TGI [44]
34.8 µM: TGI [43]
24.1 µM: TGI [28]
32.9 µM: TGI [40]
